Converted amounts (≈) assume the structure as drawn. “Also recorded” adds a separate entry of the source. Where two headings read alike, the source gives them in different places.
Key:
[1] = target: T1, SmBRD3(2) (Schistosoma mansoni, UniProt A0A5K4ESD7); test: biochemical; type: binding
[2] = test system: S. mansoni schistosomula; test: Ex vivo schistosomula screening (Roboworm high content imaging); set-up: species or system Schistosoma mansoni; conditions: 72 h; for EC50: Schistosoma mansoni, ethyl esters (R=Et), 95% CI in brackets
Experimental: A high-throughput imaging platform that quantifies both phenotype and motility ex vivo, was used to screen compounds against schistosomula; their effects were assessed as previously described.[20] Briefly, the schistosomula stage of S. mansoni was obtained by mechanical transformation of cercariae, dispensed into 384-well tissue culture plates, and dosed with 20 μM (Figure 7) or 10 μM (Figure S48) of each compound. Following 72 h coincubation of the schistosomula and compound, the plate was subjected to high content imaging to quantify the effects of each compound.
S. mansoni schistosomula were obtained by mechanical transformation from cercariae as previously described,[64] distributed in 384-well tissue culture plates (PerkinElmer, catalogue number 6007460) at 120 parasites/well and dosed with the selected compounds as previously reported.[65]−[68] For this study, each compound (as 10 mM DMSO stock solution) was initially tested at two concentration points (20 and 10 μM final concentration, in duplicates) in at least four independent screens (Z′ scores above 0.35).[69] Each screen contained both positive (10 μM auranofin (AUR) in 0.625% DMSO) and negative (0.625% DMSO) controls. […] Following 72 h schistosomula/compound coincubation, the plate was analyzed by the Roboworm platform.[70] EC50 values were calculated from the titrated concentrations by nonlinear regression, after log transformation of concentrations and data normalization using GraphPad Prism 7.02.

[3] = test system: S. mansoni adult worms; test: Ex vivo adult worm screening (motility, IVLEs, pairing); set-up: species or system Schistosoma mansoni; conditions: 72 h
Experimental: S. mansoni adult worms were recovered by hepatic portal vein perfusion from TO mice (Mus musculus HsdOLa:TO - Tuck Ordinary; Envigo, UK) that were percutaneously infected 7 weeks earlier with 180 cercariae.[65],[71] Following perfusion, schistosomes were washed and processed as previously described.[65],[66] Subsequently, schistosome pairs were seeded into 48 well tissue culture plates (1 worm pair/well, in duplicate) and dosed with the compounds (20 μM in 0.2% DMSO). DMSO (0.2%) and praziquantel (10 μM in 0.1% DMSO) were also included as negative and positive controls, respectively. Parasite motility was assessed by a digital image processing-based system (WormassayGP2),[66] modified after Wormassay.[72]In vitro laid eggs (IVLEs) were enumerated and the presence or absence of paired worms was noted.

[4] = test system: S. mansoni miracidia; test: Ex vivo miracidia to sporocyst transformation screening; set-up: species or system Schistosoma mansoni; conditions: 48 h
Experimental: S. mansoni miracidia were obtained by hatching of schistosome eggs as previously described.[73] The resulting miracidial suspension was collected, washed with Chernin’s balanced salt solution (CBSS),[73] and enumerated prior to being used for ex vivo miracidia to sporocyst screens as previously reported.[66],[73] Each compound was tested at 0.5, 2.0, 5.0, 10, and 25 μM final concentrations (in 1% DMSO). Each treatment was set up in duplicate (15–25 miracidia/well). Each titration was performed in three independent experiments (two technical replicates per data point). Parasites cultured in CBSS (containing 1% DMSO) were included as negative controls. After 48 h incubation at 26 °C in the dark, dead, fully transformed and partially transformed miracidia were enumerated as previously described.[74],[75]

[5] = CAD solubility assay; type: physicochemical; conditions: phosphate buffered saline, pH 7.4, phosphate buffered saline at pH 7.4; read-out: Aqueous Solubility by CAD
Experimental: A CAD solubility assay was carried out by Physchem Team, Discovery Analytical, NCE Molecular Discovery at GSK. 5 μL of 10 mM DMSO stock solution was diluted to 100 μL with pH 7.4 phosphate buffered saline, equilibrated for 1 h at room temperature, and filtered through Millipore MultiscreenHTS-PCF filter plates (MSSL BPC). The filtrate was quantified using a suitably calibrated charged aerosol detector.[45]

[6] = chromLogD assay; type: physicochemical; conditions: reversed phase HPLC column (Gemini NX C18), pH 7.4
Experimental: Lipophilicity: a chromLogD assay was carried out by the Physchem Team, Discovery Analytical, NCE Molecular Discovery at GSK. The chromatographic hydrophobicity index (CHI)[46],[47] values were measured using reversed phase HPLC column (50 × 2 mm […] Gemini NX C18, Phenomenex, UK) with fast acetonitrile gradient at starting mobile phase of pHs 2, 7.4, or 10.5. CHI values were derived directly from the gradient retention times using calibration parameters for standard compounds. The CHI value approximates to the volume % organic concentration when the compound elutes. CHI was linearly transformed into a chromLogD[48] value by least-squares fitting of experimental CHI values to calculated cLogP values for over 20000 research compounds.

[7] = test system: adult male S. mansoni; test: Determination of compound parasite permeability (LCMS of worm lysate); type: in vitro ADME, Schistosoma mansoni
[8] = Compound conversion in media with or without worms (LCMS); type: in vitro ADME; conditions: media in the presence or absence of worms; 20 μM; 24 h
Experimental: As the low solubility of the ethyl ester derivatives prevented us from determining their affinity for SmBRD3(2) using ITC, it is possible that these compounds are themselves inhibitors of SmBRD3(2). Alternatively, the ethyl esters could function as pro-drugs that release the corresponding acid in the parasite. To investigate compound permeability, adult worms were treated with 20 μM of the acid 15 or the ethyl ester 22 for 24 h, and then the media exchanged three times. The worms were then lysed and the levels of the acid 15 or the ethyl ester 22 were determined using LCMS (Figure S50).
Figure S-52. A. Estimation of the concentration of 15 and 22 in media after incubation with 22 in the presence and absence of S. mansoni. The concentration estimations were calculated as an average (presence of worm n=3, no worm n=2) from the analysis media in the presence (5 worms per well) or absence of worms, with error bars representing the s.e.m. B. Estimation of the concentration of 1 and 2 in media after incubation with 2 in the presence and absence of S. mansoni. The concentration estimations were calculated as an average (presence of worm n=2, no worm n=1) from the analysis of media in the presence (5 worms per well) or absence of worms with error bars representing the […]

[9] = target: SmBRD3(1,2) (Schistosoma mansoni, UniProt A0A5K4ESD7); test: biochemical; type: binding; conditions: for Kd: ITC
Sequence of SmBRD3(1,2) (Schistosoma mansoni, UniProt A0A5K4ESD7) (A0A5K4ESD7 entry or part of it): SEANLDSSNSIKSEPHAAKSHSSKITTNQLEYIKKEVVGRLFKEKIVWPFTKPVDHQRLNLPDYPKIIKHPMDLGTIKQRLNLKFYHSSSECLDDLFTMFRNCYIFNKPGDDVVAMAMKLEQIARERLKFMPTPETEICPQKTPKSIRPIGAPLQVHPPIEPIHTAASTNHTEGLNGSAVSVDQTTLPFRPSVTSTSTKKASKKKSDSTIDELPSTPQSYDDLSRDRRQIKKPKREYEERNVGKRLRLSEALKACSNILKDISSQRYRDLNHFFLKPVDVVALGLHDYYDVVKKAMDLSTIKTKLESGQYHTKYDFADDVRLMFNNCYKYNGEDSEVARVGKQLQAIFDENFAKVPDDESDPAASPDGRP

[10] = target: T1, SmBRD3(2); test: Differential scanning fluorimetry (thermal shift), SmBRD3(2); type: binding; conditions: DSF; 50 μM compound
Experimental: Reported ΔTm values are the mean of two replicates.
Differential scanning fluorimetry assay
The differential scanning fluorimetry (DSF) or thermal stability assays were carried out following the protocol described by Niesen et al. and data were analysed as described previously.8 Thermal melting experiments were carried out using the Mx3005p real-time PCR machine (Agilent) and employing a protein concentration of 5 μM for the schistosomal bromodomains [SmBRD3(2), […]
the DMSO content was 0.5% (v/v). Buffer conditions were 50 mM HEPES buffer, pH 7.5, 500 mM NaCl and a 1:500 dilution of SYPRO® Orange (Invitrogen, CA) was used. The 96-well PCR plates were sealed and centrifuged for 2 min at 1000 rpm at 25 °C before measurement. The temperature was raised with a step of 1 °C per 30 s from 25 °C to 85 °C, and fluorescence readings were taken at each interval. […]
Isothermal titration calorimetry experiments were performed on a MicroCal PEAQ-ITC Automated or Manual (Malvern) and analysed with the MicroCal PEAQ-ITC Analysis software (Malvern 1.1.0.1262) using a single binding site model. […]
Male adult schistosomes were seeded into 24-well tissue culture plates (5 worms/well), dosed with compounds (20 µM in 0.2% DMSO v/v) and incubated for 24 h at 37 °C in 5% CO2. […] When ready for processing, worms were removed from the −80 °C and subject to 3 rounds of repeated snap freeze:thawing. […]

[11] = test system: SmBRD3(1,2); test: Differential scanning fluorimetry (thermal shift), SmBRD3(1,2); conditions: DSF; 50 μM compound
Experimental: difference between the transition midpoints of sample and reference wells containing protein without inhibitor in the same plate. Reported ΔTm values are the mean of two replicates.
Isothermal titration calorimetry experiments were performed on a MicroCal PEAQ-ITC Automated or Manual (Malvern) and analysed with the MicroCal PEAQ-ITC Analysis software (Malvern 1.1.0.1262) using a single binding site model. For each experiment, the first data point was removed from the analysis. The proteins were dialysed at 4 °C overnight in a Slide-A-LyzerR MINI Dialysis Device (2000 MWCO; Thermo Scientific Life Technologies) into 50 mM HEPES, 150 mM NaCl containing 0.2% DMSO; pH 7.4. Proteins were centrifuged to remove aggregates (3 min, 3000 rpm, 25 °C).
Compounds were dissolved as a DMSO stock solution and diluted to the required concentration using dialysis buffer (DMSO free) and to a final DMSO concentration of 0.2% (unless otherwise specified). The cell was stirred at 750 rpm, reference power set to 5 μcal/s and temperature held at 25 °C. After an initial delay of 60 s, 19 x 2 μL injections (first injection 0.4 μL) were performed with a spacing of 180 s. […]

[12] = 20 μM (Figure 7) or 10 μM (Figure S48)

T1 sequence (A0A5K4ESD7 entry or part of it): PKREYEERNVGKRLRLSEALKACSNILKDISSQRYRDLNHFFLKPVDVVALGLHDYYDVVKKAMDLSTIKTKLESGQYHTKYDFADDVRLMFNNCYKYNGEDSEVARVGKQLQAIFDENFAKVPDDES

## CCOC(=O)c1ccc(-c2ccc3c(c2)[C@H](Nc2ccc4ncccc4c2)C[C@H](C)N3C(C)=O)cc1 [Compound 22, Ethyl 4-{(2S,4R)-1-Acetyl-2-methyl-4-[(quinolin-6-yl)amino]-1,2,3,4-tetrahydroquinolin-6-yl}benzoate]
[1]
  SmBRD3(2) Kd: No binding
  SmBRD3(2) Kd, Repeat 1: No binding
[2]; 10 μM
  Antischistosomula activity at 10 μM: active
[2]; [12]
  Effect on schistosomula motility: greatest effects; also recorded: strong effects
  Effect on schistosomula phenotype: greatest effects; also recorded: strong effects
[2]; read-out: Schistosomla Movement EC50
  EC50: 3.3 µM
[2]; read-out: Schistosomla Phenotype EC50
  EC50: 1.11 µM
[3]; 20 μM in 0.2% DMSO
  Effect on adult worm movement: substantial effects; also recorded: reduced
[3]; 20 μM
  Effect on egg count (in vitro laid eggs): reduced
  Effect on worm pairing: reduced
[4]; 0.5-25 μM in 1% DMSO, 26 °C
  Effect on miracidia to sporocyst transformation: concentration-dependent inhibition; also recorded: substantial and concentration-dependent effect
[4]
  Concentration at which the majority of miracidia were prevented from transforming into sporocysts: 2.00 µM
[5]
  solubility at 1 h: 13 µM (≈ 6.23 µg/mL)
[6]
  chromatographic logD: 5.95
[7]; adult worms, 20 μM, 24 h
  Worm permeability: high worm permeability
[7]; worms treated with 20 μM for 24 h, LCMS
  Conversion of ester to acid 15 in the worm: can be converted from the ester to the acid in the worm
[7]; worms treated with 20 μM of the same compound for 24 h, LCMS
  Quantity of compound found in lysed adult worms: High quantities
[8]
  Conversion in media (ester hydrolysis / deacetylation): some ester hydrolysis

## CC(=O)N1c2ccc(-c3ccc(C(=O)O)cc3)cc2[C@H](Nc2ccc(Cl)cc2)C[C@@H]1C [I-BET726 (8), I-BET726, reference compound]
[9]; ITC stoichiometry, n=1 ± error of curve fit
  N number, binding to SmBRD3(1,2): 1.66 ± 6.7e-2
[9]; SmBRD3(1,2) Kd, n = 1 ± error of the curve fit
  Kd: 1.52 ± 0.52 µM
[9]; SmBRD3(1,2) pKd
  Kd: 1.58 µM
[1]; ITC stoichiometry, Repeat 1
  N number, binding to SmBRD3(2), Repeat 1: 1.12 ± 4.2e-2
[1]; ITC stoichiometry, mean of repeats
  N number, binding to SmBRD3(2), Mean: 1.12 ± 4.2e-2
[1]; SmBRD3(2) Kd, ITC, single value ± error of the curve fit or mean of 2-3 repeats ± s.e.m.
  Kd: 1.85 ± 0.361 µM
[1]; SmBRD3(2) Kd, Repeat 1, ITC, single run ± error of curve fit, Repeat 1
  Kd: 1.85 ± 0.361 µM
[1]; SmBRD3(2) pKd, ITC
  Kd: 2 µM
[10]
  Thermal stabilisation (ΔTm) of SmBRD3(2): stabilize both SmBRD3(1,2) and SmBRD3(2)
[11]
  Thermal stabilisation (ΔTm) of SmBRD3(1,2): stabilize both SmBRD3(1,2) and SmBRD3(2)

From paper PMC10726355, “Small Molecule Ligands of the BET-like Bromodomain, SmBRD3, Affect Schistosoma mansoni Survival, Oviposition, and Development” (Journal of Medicinal Chemistry, 2023)
